Experimental data: patent US7365057B2, “Modified 2′ and 3′-nucleoside prodrugs for treating Flavivridae infections” (priority 2002, dated 2008)

What was measured:
[1] = test system: Vero 76, African green monkey kidney cells
HCV = details: ribavirin alone; Davis, Gastroenterology 2000; cited from earlier work

Compound | CC50 (MT-4) [µM] | CC50 [1] [µM] | CC50 (BHK) [µM] | effect on serum levels of HCV-RNA (HCV) | patients in whom serum amino transferase levels are reduced to normal (HCV) [%]
β-D-2′-C-methyl-7-methyl-6-phenyl-3,3a,5,8a-tetrahydro-1,3,4,5,7a-penta-aza-s-indacen-8-one [Compound F] | > 100 | > 100 | > 100 | – | –
NC(=O)c1ncn([C@@H]2O[C@H](CO)[C@@H](O)[C@H]2O)n1 [Ribavirin, 1-β-D-ribofuranosyl-1-1,2,4-triazole-3-carboxamide] | – | – | – | does not lower serum levels of HCV-RNA | 40
